Assay [1] concerns the target T1, N-type calcium channels (Homo sapiens, UniProt Q00975).
T1 construct: Human neuroblastoma cells IMR-32 were obtained from ATCC; host or cells: IMR-32 human neuroblastoma cells, differentiated with dibutyl cAMP and 5-bromodeoxyuridine
The assay is described as follows: Antagonistic activity on N-type calcium channels (fluorescence dye method, IMR-32 cells). Type of assay: cell-based. The settings on record: for inhibition at 10 µM: 10 μM test compound, read-out: N-type inhibition (inhibition rate (%) at 10 μM); for IC50: 60 mM KCl stimulation, 1 μM Nifedipine, Table 20, read-out: N-type inhibition pIC50 (converted). On the procedure:
(Test Example) Antagonistic Activity on N-Type Calcium Channels (Fluorescence Dye Method):
Human neuroblastoma cells IMR-32 were obtained from ATCC (American Type Culture Collection). The medium used was a phenol red-free Eagle minimum essential medium containing earle's salts (GIBCO) supplemented with 2 mM of L-glutamine (GIBCO), 1 mM of sodium pyruvate (pH 6.5) (GIBCO), antibiotic/antimicotic mixture (GIBCO) and 10% fetal calf serum (Cell Culture Technologies). Three ml of 1×10^5 cells/ml IMR-32 were spread on a 35 mm diameter glass dish (Iwaki Glass Co., Ltd.) which was treated with poly-L-lysin (SIGMA) and collagen (COLLAGEN VITROGEN 100, Collagen Co.). One day after cultivation, 1 mM (final concentration) of dibutyl cAMP and 2.5 μM (final concentration) of 5-bromodeoxyuridine (SIGMA) were added. After the culture for additional 10 to 14 days, the cells were subjected to the activity determination.
The medium for IMR-32 cells thus prepared was replaced with 1 ml of Phenol Red-free Eagle minimum essential medium (GIBCO) containing 2.5 μM fura-2/AM (Dojin Kagaku, Co.) and earle's salts supplement, and the incubation was conducted at 37° C. for 30 minutes. Then the medium was replaced with a recording medium (20 mM of HEPES-KOH, 115 mM of NaCl, 5.4 mM of KCl, 0.8 mM of MgCl2, 1.8 mM of CaCl2 and 13.8 mM of D-glucose). Antagonistic activity on N-type calcium channels was determined and analyzed using a fluorescence microscope (Nikon Corporation) and an image analysis device ARGUS 50 (Hamamatsu Photonics). In particular, a recording medium (20 mM of HEPES-KOH, 115 mM of NaCl, 5.4 mM of KCl, 0.8 mM of MgCl2, 1.8 mM of CaCl2 and 13.8 mM of D-glucose) containing 1 μM of Nifedipine was given to the cells by reflux by a Y-tube method for 2 minutes. Then a stimulating agent containing 60 mM of potassium chloride was rapidly given by the Y-tube method. The calcium concentration change in the cells was examined in terms of N-type calcium channel activity. Stimulating agents containing 60 mM of potassium chloride and 0.1, 1 or 10 μM of test compound were successively and rapidly given to the same cells by the Y-tube method to determine the change in calcium concentration in the cells on this occasion. Antagonistic activity on N-type calcium channel was thus calculated from the inhibition rates.
The same procedure as that of the above-described tests of the N-type calcium channel antagonistic activity of the compounds obtained in the Examples was repeated except for the following changes: stimulating agents containing 60 mM of potassium chloride and 0.1, 1 or 10 μM of test compound were successively and rapidly given by the Y-tube method. A change in calcium concentration in the cells was determined.

For assay [2], the target named is T2, L-type calcium channels (Rattus norvegicus, UniProt P22002).
T2 construct: The thoracic aorta isolated from a Wistar rat was cut to obtain ring-shaped samples; from tissue; host or cells: isolated Wistar rat thoracic aorta rings, endothelium removed
T2 sequence (P22002 whole entry): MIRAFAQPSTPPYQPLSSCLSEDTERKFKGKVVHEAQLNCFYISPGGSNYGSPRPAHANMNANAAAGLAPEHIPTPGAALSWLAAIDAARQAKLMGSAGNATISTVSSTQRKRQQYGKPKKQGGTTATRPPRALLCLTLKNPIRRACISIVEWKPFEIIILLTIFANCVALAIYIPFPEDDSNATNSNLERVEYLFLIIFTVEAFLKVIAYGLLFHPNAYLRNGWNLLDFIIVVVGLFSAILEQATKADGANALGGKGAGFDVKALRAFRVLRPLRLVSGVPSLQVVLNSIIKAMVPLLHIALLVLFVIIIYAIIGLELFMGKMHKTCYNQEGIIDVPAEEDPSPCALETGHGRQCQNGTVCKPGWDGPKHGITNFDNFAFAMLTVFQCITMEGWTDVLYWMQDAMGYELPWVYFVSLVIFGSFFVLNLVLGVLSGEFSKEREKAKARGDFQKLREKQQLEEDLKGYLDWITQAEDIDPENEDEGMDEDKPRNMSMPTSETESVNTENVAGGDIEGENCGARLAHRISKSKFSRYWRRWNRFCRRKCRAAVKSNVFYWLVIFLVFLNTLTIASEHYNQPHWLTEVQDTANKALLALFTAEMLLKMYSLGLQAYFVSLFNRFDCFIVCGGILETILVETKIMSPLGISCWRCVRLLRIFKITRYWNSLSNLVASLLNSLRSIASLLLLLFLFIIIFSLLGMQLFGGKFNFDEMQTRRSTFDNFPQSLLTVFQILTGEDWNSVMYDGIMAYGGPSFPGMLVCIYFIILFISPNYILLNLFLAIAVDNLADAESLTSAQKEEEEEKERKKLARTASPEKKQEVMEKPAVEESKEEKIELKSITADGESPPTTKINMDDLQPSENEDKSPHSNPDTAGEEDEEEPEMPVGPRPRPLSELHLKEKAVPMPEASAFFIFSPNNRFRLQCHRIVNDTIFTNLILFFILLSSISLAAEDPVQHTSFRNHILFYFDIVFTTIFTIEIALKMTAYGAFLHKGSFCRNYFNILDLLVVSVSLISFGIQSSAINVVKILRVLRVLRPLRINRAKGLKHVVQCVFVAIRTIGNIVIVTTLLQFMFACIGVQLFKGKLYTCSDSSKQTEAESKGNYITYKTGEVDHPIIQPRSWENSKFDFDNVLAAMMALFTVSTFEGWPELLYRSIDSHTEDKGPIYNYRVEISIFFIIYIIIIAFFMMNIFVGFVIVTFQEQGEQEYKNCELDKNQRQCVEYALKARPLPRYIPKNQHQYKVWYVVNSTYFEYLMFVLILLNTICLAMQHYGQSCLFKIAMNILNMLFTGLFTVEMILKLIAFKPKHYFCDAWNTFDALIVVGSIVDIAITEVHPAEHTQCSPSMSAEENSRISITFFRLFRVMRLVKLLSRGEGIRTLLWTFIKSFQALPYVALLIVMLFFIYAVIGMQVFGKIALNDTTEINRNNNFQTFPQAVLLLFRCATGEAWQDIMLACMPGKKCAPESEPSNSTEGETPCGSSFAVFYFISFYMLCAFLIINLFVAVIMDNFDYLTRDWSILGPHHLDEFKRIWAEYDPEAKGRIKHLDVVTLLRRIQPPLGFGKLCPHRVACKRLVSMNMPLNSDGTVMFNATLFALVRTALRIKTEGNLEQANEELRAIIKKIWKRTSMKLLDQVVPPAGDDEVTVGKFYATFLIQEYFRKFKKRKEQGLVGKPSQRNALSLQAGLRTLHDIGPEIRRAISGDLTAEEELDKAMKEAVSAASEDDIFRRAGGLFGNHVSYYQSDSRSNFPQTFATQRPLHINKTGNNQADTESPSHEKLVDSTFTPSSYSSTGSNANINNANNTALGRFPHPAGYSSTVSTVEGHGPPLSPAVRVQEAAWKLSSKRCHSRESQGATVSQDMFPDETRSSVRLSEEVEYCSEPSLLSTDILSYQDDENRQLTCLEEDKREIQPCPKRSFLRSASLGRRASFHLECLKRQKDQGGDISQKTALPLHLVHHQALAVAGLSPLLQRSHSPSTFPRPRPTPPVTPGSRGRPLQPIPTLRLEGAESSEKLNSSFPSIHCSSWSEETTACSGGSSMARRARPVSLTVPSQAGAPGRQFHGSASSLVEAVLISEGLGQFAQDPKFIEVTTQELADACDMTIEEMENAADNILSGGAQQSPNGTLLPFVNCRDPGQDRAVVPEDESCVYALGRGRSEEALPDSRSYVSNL
T2 sequence (P54287 whole entry partner): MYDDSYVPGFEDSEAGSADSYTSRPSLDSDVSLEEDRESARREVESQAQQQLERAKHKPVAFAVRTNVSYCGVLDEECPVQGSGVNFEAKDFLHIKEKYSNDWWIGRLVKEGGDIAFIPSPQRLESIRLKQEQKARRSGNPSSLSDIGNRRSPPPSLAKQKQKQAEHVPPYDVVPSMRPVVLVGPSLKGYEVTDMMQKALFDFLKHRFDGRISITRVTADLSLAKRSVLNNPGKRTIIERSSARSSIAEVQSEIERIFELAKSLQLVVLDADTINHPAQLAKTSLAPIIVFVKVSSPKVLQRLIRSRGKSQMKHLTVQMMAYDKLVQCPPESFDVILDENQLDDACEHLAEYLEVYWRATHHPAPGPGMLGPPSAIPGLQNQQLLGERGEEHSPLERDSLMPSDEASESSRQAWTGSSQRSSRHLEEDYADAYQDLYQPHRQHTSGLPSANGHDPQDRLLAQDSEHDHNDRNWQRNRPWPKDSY
T2 sequence (P54290 25-944 partner limits assumed): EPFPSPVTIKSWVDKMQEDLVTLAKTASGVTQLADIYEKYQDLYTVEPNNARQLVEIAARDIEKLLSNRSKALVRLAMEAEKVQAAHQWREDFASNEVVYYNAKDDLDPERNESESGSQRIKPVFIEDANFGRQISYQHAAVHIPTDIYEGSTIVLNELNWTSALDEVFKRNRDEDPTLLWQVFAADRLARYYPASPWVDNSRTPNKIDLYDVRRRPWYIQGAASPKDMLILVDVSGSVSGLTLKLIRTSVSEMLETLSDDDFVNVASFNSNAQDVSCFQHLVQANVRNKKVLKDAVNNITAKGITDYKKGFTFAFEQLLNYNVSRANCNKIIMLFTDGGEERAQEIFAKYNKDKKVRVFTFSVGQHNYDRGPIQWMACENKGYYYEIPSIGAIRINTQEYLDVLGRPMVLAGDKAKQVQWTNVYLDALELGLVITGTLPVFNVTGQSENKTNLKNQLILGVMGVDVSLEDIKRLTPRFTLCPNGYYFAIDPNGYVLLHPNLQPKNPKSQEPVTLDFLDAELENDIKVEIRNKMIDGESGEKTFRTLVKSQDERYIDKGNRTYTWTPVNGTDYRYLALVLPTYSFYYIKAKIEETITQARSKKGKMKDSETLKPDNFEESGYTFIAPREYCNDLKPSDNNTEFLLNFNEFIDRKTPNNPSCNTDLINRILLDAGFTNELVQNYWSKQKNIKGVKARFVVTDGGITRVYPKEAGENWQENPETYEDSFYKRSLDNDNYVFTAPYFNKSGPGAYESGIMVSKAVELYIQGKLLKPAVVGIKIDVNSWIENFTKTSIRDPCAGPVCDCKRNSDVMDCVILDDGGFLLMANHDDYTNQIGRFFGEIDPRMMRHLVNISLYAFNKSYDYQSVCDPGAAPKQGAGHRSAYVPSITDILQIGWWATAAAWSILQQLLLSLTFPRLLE
T2 sequence (P54290 945-1091 partner limits assumed): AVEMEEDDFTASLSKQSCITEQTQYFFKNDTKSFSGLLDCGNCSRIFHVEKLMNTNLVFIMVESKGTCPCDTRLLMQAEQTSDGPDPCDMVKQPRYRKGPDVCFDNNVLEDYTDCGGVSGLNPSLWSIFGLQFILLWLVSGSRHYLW
Kind of assay: Antagonistic activity on L-type calcium channels (relaxation of KCl-induced contraction of isolated rat thoracic aorta). The settings on record: isolated Wistar rat thoracic aorta; for L-type inhibition pIC50: Table 21. As to the method: (Test Example) Antagonistic Activity on L-Type Calcium Channels:
The activity of the dihydropyrimidine derivatives of the present invention to inhibit L-type calcium channels was determined by the following method in which the relaxation reaction on the KCl-induced contraction of isolated rat thoracic aorta was employed.
1) Method of Preparation of Rat Thoracic Aorta:
The thoracic aorta isolated from a Wistar rat was cut to obtain ring-shaped samples having a width of about 3 mm. The endothelial cells of the samples were mechanically removed. The samples were then suspended in a strain gage in Tyrode's solution (158.3 mM of NaCl, 4.0 mM of KCl, 1.05 mM of MgCl2, 0.42 mM of NaH2PO4, 10 mM of NaHCO, 2 mM of CaCl2 and 5 mM of glucose) in which a gaseous mixture of O2 (95%) and CO2 (5%) was introduced. A static tension of 2 g was applied hereto. The tension of the blood vessel was amplified with a transducer and a tension amplifier (EF-601G; Nihon Koden Corporation) and recorded with a multi-pen recorder (Rikadenki Kogyo Co., Ltd.). The experiments were conducted at 37° C.
2) Measurment of Relaxation Response Against KCl-Induced Contraction:
After the tension had been stabilized, the solution in the sample tank was replaced with High K^+ Tyrode's solution (112.3 mM of NaCl, 50 mM of KCl, 1.05 mM of MgCl2, 0.42 mM of NaH2PO4, 10 mM of NaHCO3, 2 mM of CaCl2 and 5 mM of glucose) to conduct the contraction reaction. Thirty minutes after, the solution in the sample tank was replaced with the normal Tyrode's solution. The solution in the sample tank was again replaced with the High K^+ Tyrode's solution and the contraction reaction was observed. After attaining the maximum contraction reaction, the test compound was cumulatively added at intervals of […] to attain concentrations of 10^−9, 10^−8, 10^−7 and 10^−6 M. The inhibitory rate of the test compound on the maximum contraction reaction was employed as the index of the inhibition activity on L-type calcium channels.

The subject of assay [3] is SD rats. Kind of assay: Analgesic action in the formalin test. Type of assay: in vivo, rat. The settings on record: 3 mg/kg p.o. 3 hours before formalin injection, counted for 60 minutes, average±standard error, control group 116 ± 8. On the procedure:
(Test Example) Determination of Analgesic Action (Analgesic Action in the Formalin Test) 1) Preparation of Solution of a Test Compound and its Administration
The compound was weighed and ground in a mortar. While grinding the powder, 0.5% tragacanth solution was added thereto so that a suspension was prepared to have a concentration of 0.6 mg/ml.
Three hours before the formalin injection, the compound suspension was orally administered to SD rats at a volume of 5 ml/kg (dosage; 3 mg/kg, p.o.). In the control group, 0.5% tragacanth solution was orally administered to SD rats at a volume of 5 ml/kg 3 hours before formalin injection.
2) Determination of Analgesic Action in the Formalin Test
The SD rats to which the compound was administered were introduced to a capsule. They were settled under halothane (2 to 4% in 3 L/min of oxygen gas flow rate) and 100 μl of 5% formalin solution was injected subcutaneously to their dorsal surface of left legs. After injection, determination was started when the rats came out from the anesthetic state (based on recovery of righting reflex). The number of flinching under the influence of formalin injection was counted for 60 minutes (Reference: J. Neurosci. 14: 4882-4890 (1994)). The results are shown as “average±standard error” in Table 22.

Where [4] appears, read: Table 20, read-out: L-type inhibition pIC50 (converted).
Where [5] appears, read: Table 21, read-out: L-type inhibition pIC50 (converted).

Like-named read-outs stand apart in the source and are kept apart here.

As to `CSc1nc(C)c(C(=O)NC/C=C/c2ccccc2)c(-c2cccc(Cl)c2)n1` [Example 1, 4-(3-chlorophenyl)-6-methyl-2-(methylthio)-N-(3-phenyl-2-propen-1-yl)-5-pyrimidinecarboxamide], the inhibition at 10 µM in assay [1] turned out to be 52%. Moreover, the values for the IC50 in assay [1] and in assay [2] (setting [4]) were 1580 nM and 2510 nM, respectively. For the same molecule, in assay [2], the “L-type inhibition pIC50” value is 5.6.
The matching figures for `CSc1nc(C)c(C(=O)NCCCc2ccccc2)c(-c2cccc(Cl)c2)n1` [Example 16, 4-(3-chlorophenyl)-6-methyl-2-(methylthio)-N-(3-phenylpropyl)-5-pyrimidinecarboxamide]: 58%, 2000 nM, 3160 nM and 5.5.
As for `CSc1nc(C)c(C(=O)NCCCc2ccccc2)c(-c2ccc(C)cc2C)n1` [Example 93, 4-(2,4-dimethylphenyl)-6-methyl-2-(methylthio)-N-(3-phenylpropyl)-5-pyrimidinecarboxamide], the inhibition at 10 µM in assay [1] amounted to 63%. Also, the IC50 in assay [2] (setting [5]) was 5010 nM. Further, the “Flinching (number)” value in assay [3] turned out to be 39 ± 11 number.
Turning to `CCc1nc(C)c(C(=O)NCCCc2ccccc2)c(-c2cc(Cl)cc(Cl)c2)n1` [Example 103, 2-ethyl-4-(3,5-dichlorophenyl)-6-methyl-N-(3-phenylpropyl)-5-pyrimidinecarboxamide], in assay [1], the inhibition at 10 µM worked out at 74%. Also, the IC50 in assay [2] (setting [5]) was 3980 nM.
The matching figures for `CSc1nc(C)c(C(=O)NCCCc2ccccc2)c(-c2c(Cl)cccc2Cl)n1` [Example 110, 4-(2,6-dichlorophenyl)-6-methyl-2-(methylthio)-N-(3-phenylpropyl)-5-pyrimidinecarboxamide]: 77% and 2510 nM.
For the molecule `Cc1nc(C)c(C(=O)N2CCNCC2)c(-c2cccc(Cl)c2)c1C(=O)OCCC(c1ccccc1)c1ccccc1` [Example 122, 4-(3-chlorophenyl)-2,6-dimethyl-5-(piperazine-1-carbonyl)nicotinic acid (3,3-diphenylpropyl) ester], in assay [1], the inhibition at 10 µM came to 56%. The IC50 in assay [1] is 1580 nM; in assay [2] (setting [4]), 1000 nM. For the same molecule, the “L-type inhibition pIC50” value in assay [2] is recorded as 6.0. Besides, the “Flinching (number)” value in assay [3] was 61 ± 16 number.
As to `Cc1nc(C)c(C(=O)N2CCN(C)CC2)c(-c2cccc(Cl)c2)c1C(=O)OCCC(c1ccccc1)c1ccccc1` [Example 125, 4-(3-chlorophenyl)-2,6-dimethyl-5-(4-methylpiperazine-1-carbonyl)nicotinic acid (3,3-diphenylpropyl) ester], the inhibition at 10 µM in assay [1] was 70%. Besides, the IC50 in assay [2] (setting [5]) was 1260 nM. Also, the “Flinching (number)” value in assay [3] is reported as 62 ± 25 number.

One may read the inhibition as the change of the read-out against control, counted positive when it falls.

These data come from patent publication US7288544B2, “Pyrimidine compounds useful as N-type calcium channel antagonists” (Ajinomoto Co., Inc., priority 2000, dated 2007).
